Assay results reported in patent US11730731B2 (INVENTAGE LAB INC., priority 2021, dated 2023).
Where a name gives a salt, the structure may show the parent alone.

Key:
[1] = tested on: pro-inflammatory cytokines (TNF-α, IL-1β, IL-6, IL-17, iNOS) in Raw 264.7 cells; test: RT-qPCR of LPS-induced pro-inflammatory cytokine expression in Raw 264.7 cells; details: LPS 1 ug/ml, 0.5, 1, 10, 100 uM, 6 hours
Text: (§4) Lipopolysaccharide (LPS) was purchased from Sigma-Aldrich (St. Louis, Mo., USA).

[2] = tested on: pro-inflammatory cytokines (TNF-α, IL-1β, IL-6, IL-17, iNOS) in SW982 cells; test: RT-qPCR of LPS-induced pro-inflammatory cytokine expression in SW982 cells; details: LPS 1 ug/ml, 0.5, 1, 10, 100 uM, 6 hours
Text: as §4

[3] = tested on: MAPKs (ERK, JNK, p38); test: Western blotting of MAPKs activity in LPS-treated SW982 cells; type: cell-based, human; details: LPS 1 ug/ml, 0.5, 1, 10, 100 uM, 30 minutes, naltrexone effect at 1 uM
Protocol: (§1) Western blotting was performed in the same manner as in Example 6.3. The first antibody used at this time is an antibody against p-ERK, ERK, p-JNK, JNK, p-p38, p38 and calnexin (Cell signaling, CA, USA), and the secondary antibody is anti-mouse or anti-rabbit HRP-binding secondary antibody.
(§2) 1× Cell lysis buffer (Cell signaling, CA, USA) was mixed with protease and a phosphatase inhibitor and added to SW982 cells. After extracting the protein from the cells, the concentration was measured, and the same amount of protein was developed on an SDS-polyacrylamide gel, and transferred to an ECL nitrocellulose membrane (Amersham Pharmacia Biotech, Inc., Piscataway, N.J., USA) and blocked with nonfat dried milk for 1 hour. Thereafter, the reaction was performed with the first antibody (p65 NF-κB, phospho p65 NF-κB, p-ERK, ERK, p-JNK, JNK, p-p38, p38 or calnexin; Cell signaling, CA, USA), while shaking at 4° C. for 24 hours. Then, after shaking and washing 3 times for 10 minutes with PBST buffer, the secondary antibody was incubated with anti-mouse or anti-rabbit HRP-conjugated secondary antibody for 1 hour at room temperature, and reacted with the protein band on the membrane using Supersignal west pico ECL solution (Thermo Fisher Scientific Inc.). The results were visualized with the Bio-Rad Gel Documentation system (Bio-Rad Laboratories, Hercules, Calif., USA), and the results are shown in FIG. 35.

[4] = tested on: p65 NF-κB; test: Western blotting of NF-κB activity in LPS-treated Raw 264.7 cells; type: cell-based, mouse; details: LPS 1 ug/ml, 0.5, 1, 10, 100 uM, 30 minutes
[5] = tested on: MAPKs (ERK, JNK, p38); test: Western blotting of MAPKs activity in LPS-treated Raw 264.7 cells; type: cell-based, mouse; details: LPS 1 ug/ml, 0.5, 1, 10, 100 uM, 30 minutes
Protocol: as §1
Western blotting was performed in the same manner as in Example 7.4.

[6] = tested on: p65 NF-κB; test: Western blotting of NF-κB activity in LPS-treated SW982 cells; type: cell-based, human; details: LPS 1 ug/ml, 0.5, 1, 10, 100 uM, 30 minutes, naltrexone effect at 1 uM
Protocol: as §2, with “NF-κB” for “NF-κB, p-ERK, ERK, p-JNK, JNK, p-p38, p38”, “were” for “are”, “26.” for “35.”
as §2, with “The results were visualized with the Bio-Rad Gel Documentation system (Bio-Rad Laboratories, Hercules, Calif., USA), and the results are shown in FIG. 35.” left out

[7] = tested on: experimental autoimmune encephalomyelitis (EAE); test: EAE clinical score in experimental autoimmune encephalomyelitis mice (multiple sclerosis model); type: in vivo; details: Example 5, EAE mouse; Q-DDS 1 mg/mouse sc once on day 3; Fytarex 3 mg/kg oral daily; Revia oral daily; mean±SEM
Protocol: As an experimental autoimmune encephalomyelitis mouse model (Mouse Experimental Autoimmune Encephalomyelitis: EAE), 6 to 10 week-old female mice of C57BL/6 strain were prepared.
Myelin-oligodendrocyte glycoprotein (MOG) was dissolved in phosphate-buffered saline (PBS) to be 1 mg/mL, and was emulsified by mixing at 1:1 (v/v) with 5 mg/mL Complete Freund's adjuvant. 100 μl of this was subcutaneously injected into both sides of the mouse, and then 400 μl of 2 pg/mL pertussis toxin was intraperitoneally injected (first immunization, day 0). On the second day, 400 μl of 2 μg/mL pertussis toxin was intraperitoneally injected a second time. On the third day after the first immunization, the test was performed by separating the experimental group.
Then, the occurrence and extent of clinical symptoms were regularly observed until the end of the experiment (The 30th day). The clinical symptom level was assigned a score of 0 to 5 after evaluating the functionality of the tail and four legs according to the criteria in Table 34 below, and was used as the EAE clinical score.

[8] = tested on: experimental autoimmune encephalomyelitis (EAE); test: Spinal cord histology, hematoxylin/eosin staining (inflammation score), EAE mice; type: in vivo; details: day 30, spinal cord, Fytarex 3 mg/kg, Revia 1 mg/kg, Q-DDS 1 mg/mouse
Protocol: (§3) After mouse euthanasia, spinal cord tissue was extracted, hematoxylin/eosin staining and Luxol Fast Blue staining were performed, and MBP-targeted immunohistochemical staining was performed, and histological evaluation was performed through blind evaluation.
On the 30th day which is the last day of the experiment, mouse was sacrificed, and the mouse spinal cord tissue was extracted and paraffin-embedded slides were prepared and then stained with hematoxylin/eosin, and the spinal cord tissue was photographed at 50 and 200 magnifications. Then, histological scores were measured according to the histological evaluation criteria of Table 36 below to evaluate the distribution of inflammatory cells.

[9] = tested on: experimental autoimmune encephalomyelitis (EAE); test: Spinal cord histology, Luxol Fast Blue staining (demyelination score), EAE mice; type: in vivo, mouse
Protocol: as §3
On the 30th day which is the last day of the experiment, mouse was sacrificed, and the mouse spinal cord tissue was extracted and paraffin-embedded slides were prepared and then stained with Luxol Fast Blue, and the spinal cord tissue was photographed at 50 and 200 magnifications. In Luxol Fast Blue staining, myelin is stained from blue to green, and nerves are stained purple, and through this, the degree of demyelination was analyzed in the EAE model by confirming the neural structure in the spinal cord. Demyelination was analyzed according to the criteria described in Table 38 below and measured as a score.

[10] = tested on: myelin basic protein (MBP); test: Immunohistochemistry staining of spinal cord with anti-myelin basic protein antibody, EAE mice; type: in vivo; details: day 30, spinal cord IHC, Fytarex 3 mg/kg, Revia 1 mg/kg, Q-DDS 1 mg/mouse
Protocol: as §3
On the 30th day which is the last day of the experiment, mouse was sacrificed, and the mouse spinal cord tissue was extracted and paraffin-embedded slides were prepared and then myelin basic protein (MBP) was stained immunohistochemically, and the spinal cord tissue was photographed at 50 and 200 magnifications. This is to confirm demyelination through immunohistochemical analysis using an antibody against myelin basic protein (MBP), a component of myelin.

Compound: Oc1ccc2c3c1O[C@H]1[C@H](O)CC[C@@]4(O)[C@@H](C2)N(CC2CC2)CC[C@]314 [6β-naltrexol]
- expression of cytokines (iNOS, IL-1β, IL-6, TNF-α) induced by LPS [1]: suppressed at all concentrations
- expression of cytokines (iNOS, IL-1β, IL-6, TNF-α) induced by LPS [2]: suppressed at all concentrations
- phosphorylation of MAPKs (ERK1/2, JNK, p38) increased by LPS [3]: no inhibitory effect
- p65 NF-κB phosphorylation increased by LPS [4]: inhibited
- phosphorylation of MAPKs (ERK1/2, JNK, p38) [5]: no inhibitory effect
- phosphorylation of p65 NF-κB increased by LPS [6]: no inhibitory effect

Compound: CCCCCCCCc1ccc(CCC(N)(CO)CO)cc1 [Fytarex®, Fingolimod]
- EAE clinical score [7]: 1.67±0.13

Compound: O=C1CC[C@@]2(O)[C@H]3Cc4ccc(O)c5c4[C@@]2(CCN3CC2CC2)[C@H]1O5 [Revia ®]
- Inflammation score (histological score), Mean [8]: 1.42
- Demyelination score (histological score), Mean ([9]; EAE mice, day 30, spinal cord, Luxol Fast Blue, Fytarex 3 mg/kg, Revia 1 mg/kg, Q-DDS 1 mg/mouse): 0.61
- MBP positive area/total spinal area, Mean [10]: 58.23

Compound: O=C1CC[C@@]2(O)[C@H]3Cc4ccc(O)c5c4[C@@]2(CCN3CC2CC2)[C@H]1O5 [Revia®, naltrexone hydrochloride]
- demyelination histological score (Luxol Fast Blue, spinal cord) ([9]; Example 5, EAE mouse, day 30, Q-DDS 1 mg/mouse sc once, Fytarex and Revia oral daily, mean±SEM): decrease in histological score and demyelination
